One assay relates to HGA agent. The following applies: reported by Klein et al., Antimicrob. Agents and Chemother. 1997; cited from earlier work.
Assay [1] deals with acute myelogenous leukemia (AML). Nature of the assay: Rifampin treatment of Patient one. It is filed as in vivo, human. The method, then: This was a child with acute myelogenous leukemia (AML), who had blood counts of less than 2000 platelets and less than 300 white cells, persisting for 3 months. They were treated with Rifampin and on day 11 […] white cell count increased to 21,000, with 75% blasts.

Assay [2] deals with acute lymphocytic leukemia (ALL). Nature of the assay: Rifampin treatment of Patient two, end stage marrow failure. It is filed as in vivo, human. Conditions: person, ALL recurrence after marrow transplant, no other treatment given. The text has this:
No other treatment was available or given. After 2 months of rapid improvement, during which they regained the ability to walk and was discharged from the hospital, they succumbed to an acute apparently unrecognized cytomegalovirus infection.

The subject of assay [3] is intracellular organisms in the genus of Ehrlich/Anaplasma. The following applies: cited from earlier work.

In the case of `CO[C@H]1/C=C/O[C@@]2(C)Oc3c(C)c(O)c4c(c3C2=O)C2=NC3(CCN(CC(C)C)CC3)NC2=C(NC(=O)/C(C)=C\C=C\[C@H](C)[C@H](O)[C@@H](C)[C@@H](O)[C@@H](C)[C@H](OC(C)=O)[C@@H]1C)C4=O` [rifabutin], the “activity against the HGA agent” value with HGA agent is “most active, and bactericidal”. Consider `C[C@H]1c2cccc(O)c2C(=O)C2=C(O)[C@]3(O)C(=O)C(C(N)=O)=C(O)[C@@H](N(C)C)[C@@H]3[C@@H](O)[C@@H]21` [doxycycline], for which the “activity against the HGA agent” value in the assay with HGA agent was “most active, and bactericidal”.

As for imipenem-cilastatin, in the assay with HGA agent, the “activity against the HGA agent” value is “resistant”.

As for Gentamicin, the “activity against the HGA agent” value with HGA agent is given as “weakly active, but not bactericidal”. Turning to thrmethoprim-sulfamethoxazolem, the “activity against the HGA agent” value with HGA agent is reported as “resistant”. As to `CC[C@H]1OC(=O)[C@H](C)[C@@H](O[C@H]2C[C@@](C)(OC)[C@@H](O)[C@H](C)O2)[C@H](C)[C@@H](O[C@@H]2O[C@H](C)C[C@H](N(C)C)[C@H]2O)[C@](C)(O)C[C@@H](C)CN(C)[C@H](C)[C@@H](O)[C@]1(C)O` [azrithromycin], the “activity against the HGA agent” value in the assay with HGA agent is reported as “resistant”. For `O=C(N[C@H](CO)[C@H](O)c1ccc([N+](=O)[O-])cc1)C(Cl)Cl` [chloramphenicol], in the assay with HGA agent, the “activity against the HGA agent” value was “weakly active, but not bactericidal”.

In the case of `CC1(C)S[C@@H]2[C@H](NC(=O)[C@H](N)c3ccccc3)C(=O)N2[C@H]1C(=O)O` [ampicillin], in the assay on HGA agent, the “activity against the HGA agent” value is on record as “resistant”. As to Rifampicin [Rifampin], in assay [1] (after treatment, less than 2000 platelets before), the platelets entry was “increased less rapidly”. Also, in assay [1] (day 11 of treatment, share of white cell count), the blasts stood at 75%. The white cell count in assay [1] (day 11 of treatment, child, less than 300 white cells for 3 months before) is reported as 21,000. In addition, the “activity against the HGA agent” value with HGA agent was “most active, and bactericidal”. For the same compound, the clinical outcome in assay [2] is given as “remarkable though temporary recovery”. Also, the “effectiveness against intracellular organisms of genus Ehrlich/Anaplasma” value in assay [3] is “particularly effective”.

Consider `O=C(O)c1cn(C2CC2)c2cc(N3CCNCC3)c(F)cc2c1=O` [ciprofloxacin], for which the “activity against the HGA agent” value with HGA agent was “most active, and bactericidal”. For `N[C@@H]1[C@H]2CN(c3nc4c(cc3F)c(=O)c(C(=O)O)cn4-c3ccc(F)cc3F)C[C@@H]12` [trovafloxacin], the “activity against the HGA agent” value in the assay with HGA agent is “most active, and bactericidal”. For the compound `CO/N=C(\C(=O)N[C@@H]1C(=O)N2C(C(=O)O)=C(CSc3nc(=O)c(O)nn3C)CS[C@H]12)c1csc(N)n1` [cefatriaxone], the “activity against the HGA agent” value with HGA agent is “resistant”. For `CC[C@H]1OC(=O)[C@H](C)[C@@H](O[C@H]2C[C@@](C)(OC)[C@@H](O)[C@H](C)O2)[C@H](C)[C@@H](O[C@@H]2O[C@H](C)C[C@H](N(C)C)[C@H]2O)[C@](C)(O)C[C@@H](C)C(=O)[C@H](C)[C@@H](O)[C@]1(C)O` [erythromycin], the “activity against the HGA agent” value in the assay with HGA agent is “resistant”.

Source of the values: patent US20130236898A1, “Anaplasma FAMILY MEMBERS CAUSE A NUMBER OF BLOOD-BORNE DISEASES” (priority 2012, published 2013).
